Here are results for one molecule from US7964629B2, “Inhibitors of isoprenylcysteine carboxyl methyltransferase” (Duke Universtiy, priority 2005, dated 2011).

In general, IC50 refers to the midpoint of a concentration-inhibition curve.

For test [1], the system named is Yes-GFP in MDCK cells. Nature of the test: Localization of Yes-GFP in MDCK cells (control). The class given is cell-based. Particulars: 10, 20, 30 μM. The method, then:
FIGS. 3A and 3B. Impact of cysmethynil treatment on Ras localization and signaling. FIG. 3A. Mislocalization of GFP Ras in cysmethynil treated cells. […] Live cells were imaged on a spinning disk confocal microscope. FIG. 3B. Impact of cysmethynil treatment on EGF-stimulated protein phosphorylation. […] Where indicated, cells were treated with EGF for the final 10 min prior to harvesting. Cell lysates containing equal amounts of protein were resolved on a 13% SDS-polyacrylamide gel and probed with antiphospho-Akt, antiphospho-p42/44 MAPK or anti-β-tubulin antibody as indicated. MDCK cells stably expressing GFP-H-Ras, GFP-K-Ras or GFP-N-Ras were grown on 35 mm coverslip dishes (MatTek Corporation, Ashland, Mass.) treated with poly-D-lysine. MDCK cells expressing […] were prepared by transient transfection of the Yes-GFP construct (McCabe and Berthiaume, Mol Cell Biol 10:3771-3786 (1999)) using Superfect reagent (Quiagen, Valencia, Calif.) following the manufacturer's instructions. […] Cells were imaged 72 h after drug treatment (24 h for transiently transfected cells) on an Olympus IX70 inverted microscope (Melville, N.Y.) with an UltraView spinning-disk confocal (PerkinElmer LAS, Wellesley, Mass.) and a Krypton/Argon laser, 488 nm line, attached to a cooled-CCD camera (Hamamatsu, Bridgewater, N.J.). […]

The subject of test [2] is Icmt−/−/ICMT cells. The test can be described thus: Cell growth determination, Icmt−/− cells expressing human ICMT. Type of test: cell-based, mouse. The following applies: 15, 20, 30 μM; 10% serum; six days. The procedure:
FIGS. 2A-2C. […] Media and drug were replaced daily, and cell growth was monitored for six days. Data represent the mean and standard deviation of four replicate wells. (FIG. 2A) Icmt^+/+ cells; (FIG. 2B) Icmt^−/− cells; (C) Icmt^−/− cells stably transfected with a gene expressing human ICMT (Icmt^−/−/ICMT cells).
Cell growth assays were performed in a 96-well plate format. Briefly, 500 to 1000 cells were plated into 96-well plates. After the cells were allowed to attach for 24 h, media was removed and replaced with media containing either compound or vehicle. Media and drug were replaced every 24 h throughout the assay. Cell determinations were made at the times indicated in the respective figure by adding 19 μl of CellTiter 96 AqueousOne solution to each well followed by incubation of the plates in the dark at 37° C. for two hr after which the absorbance at 490 nm was read. Background absorbance from blank wells containing only media with compound or vehicle was subtracted from each test well. Typically, 3-6 replicate wells were employed for each point in each assay.

Test [3] deals with Akt phosphorylation in DKOB8 colon cancer cells. The test can be described thus: Phosphoprotein analysis: EGF-stimulated Akt. Type of test: cell-based. The following applies: 1 μM, three days, 1% serum, EGF 10 min. The method, then:
FIGS. 3A and 3B. Impact of cysmethynil treatment on Ras localization and signaling. FIG. 3A. Mislocalization of GFP Ras in cysmethynil treated cells. […] Live cells were imaged on a spinning disk confocal microscope. FIG. 3B. Impact of cysmethynil treatment on EGF-stimulated protein phosphorylation. […] Where indicated, cells were treated with EGF for the final 10 min prior to harvesting. Cell lysates containing equal amounts of protein were resolved on a 13% SDS-polyacrylamide gel and probed with antiphospho-Akt, antiphospho-p42/44 MAPK or anti-β-tubulin antibody as indicated. […] Half of the wells were then treated with EGF (10 ng/ml) and half with vehicle for 10 min. Cells were rinsed with PBS and harvested in SDS-PAGE loading buffer. Total cell lysates (30 μg protein) were resolved on 4-20% Tris-glycine polyacrylamide gels (Invitrogen). Proteins were transferred to nitrocellulose and probed with a mix of anti-phospho-Akt and anti-phospho-p42/44 MAPK antibodies, or with anti-tubulin or anti-phospho NFκB antibody (Cell Signaling Technology) as indicated. Visualization was performed with alkaline phosphatase (Promega, Madison, Wis.) as per the manufacturer's instructions.

Test [4] concerns RhoA in MDA-MB-231 breast cancer cells. The test can be described thus: Immunoblot of steady-state Rho level. Particulars: 20 μM, 6 day treatment. Type of test: cell-based. The procedure:
The impact of Icmt inhibition on function of the geranylgeranylated GTPases Rho and Rac in cells has been examined. This study was carried out in MD-MBA-231 breast cancer cells. Tumorigenesis and metastatic behavior of these cells is dependent on high levels of Rho GTPases in particular. […] Cells were harvested and lysates containing equal amounts of protein were resolved by SDS-PAGE and subjected to immunoblot analysis with specific antibodies to RhoA (FIG. 7A), or Rac1 (FIG. 7B). As a control, immunoblot analysis for α-tubulin was carried out on all samples.
Background: Immunoblotting shows a protein as a band on a membrane.

Test [5] addresses T1, recombinant human Icmt (Homo sapiens, UniProt O60725).
T1 construct: recombinant baculovirus containing the entire open reading frame of the human Icmt cDNA; made in house; host or cells: Sf9 insect cells (baculovirus); membrane fraction used
Nature of the test: Icmt assay: [3H]methyl incorporation from [3H]AdoMet into BFC. The class given is biochemical.

In test [6] the target is SssI DNA methyltransferase (Spiroplasma monobiae, UniProt P15840). The test can be described thus: AdoMet-dependent DNA methyltransferase inhibition (results not shown). Type of test: biochemical. Particulars: concentrations up to 50 μM.

Structures are written as SMILES. Where two headings read alike, the source gives them in different places. Some results are limits rather than exact numbers.

T1 sequence (O60725 whole entry): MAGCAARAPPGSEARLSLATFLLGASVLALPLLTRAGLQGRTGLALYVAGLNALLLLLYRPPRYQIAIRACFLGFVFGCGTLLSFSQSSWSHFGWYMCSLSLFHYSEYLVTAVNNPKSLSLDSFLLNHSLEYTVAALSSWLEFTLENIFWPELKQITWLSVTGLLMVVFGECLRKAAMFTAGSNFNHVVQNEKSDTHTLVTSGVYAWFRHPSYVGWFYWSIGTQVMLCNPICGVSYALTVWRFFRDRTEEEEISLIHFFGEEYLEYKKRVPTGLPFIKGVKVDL
SssI DNA methyltransferase, sequence (P15840 whole entry): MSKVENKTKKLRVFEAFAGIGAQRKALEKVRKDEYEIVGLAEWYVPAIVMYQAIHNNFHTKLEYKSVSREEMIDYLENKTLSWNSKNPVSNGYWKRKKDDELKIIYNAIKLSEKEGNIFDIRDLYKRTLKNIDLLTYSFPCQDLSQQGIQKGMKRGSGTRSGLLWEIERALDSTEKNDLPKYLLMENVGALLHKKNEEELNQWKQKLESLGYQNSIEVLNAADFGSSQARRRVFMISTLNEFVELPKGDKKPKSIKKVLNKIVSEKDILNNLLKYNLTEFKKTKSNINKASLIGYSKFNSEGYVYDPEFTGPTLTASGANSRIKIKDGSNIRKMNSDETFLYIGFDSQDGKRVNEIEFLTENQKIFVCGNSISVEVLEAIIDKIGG

`CCCCCCCCn1cc(CC(N)=O)c2cc(-c3cccc(C)c3)ccc21` [cysmethynil, 2-[5-(3-methylphenyl)-1-octyl-1H-indol-3-yl]acetamide]: the “plasma membrane localization of Yes-GFP” value in test [1] was “did not affect”. Further, the cell growth result in test [2] was “regained sensitivity”. For the same molecule, the “EGF-induced increase in Akt phosphorylation” value in test [3] is given as “partially but not completely attenuated”. In test [4], the Rho levels result is given as “almost undetectable”. Besides, the IC50 in test [5] (BFC substrate, substrates and inhibitor premixed, reaction initiated by addition of enzyme, read-out: IC50 for Icmt inhibition) was 2400 nM; in test [5] (Table 1, R1 substituent x scaffold matrix, read-out: IC50), 2100 ± 900 nM; in test [5] (Table 3, pre-incubation with Icmt for 30 min at 37° C., read-out: IC50 PI (converted)), 290 nM; in test [5] (Table 3, without pre-incubation of the enzyme with the compound, read-out: IC50 No PI), 2100 ± 900 nM; in test [5] (enzyme premixed with inhibitor and AdoMet for 15 min prior to initiation with BFC, read-out: IC50 for Icmt inhibition) it was below 200 nM. The “inhibition of SssI DNA methyltransferase” value in test [6] is listed as “nor did it inhibit”.
